Key:
[1] = system: 5-HT2A sites labeled with [3H]ketanserin; conditions: rat frontal cortex / forebrain homogenate; ref Huang et al. 1994; cited from earlier work
[2] = system: rats trained to discriminate saline from LSD; conditions: ref Huang et al. 1994, cited from earlier work; for potency in rats trained to discriminate saline from LSD: rat drug discrimination
[3] = system: C57BL/6J mice; test: Head twitch response; type: in vivo, mouse; conditions: for ED50, nmol/kg (95% CI) / ED50, μg/kg (95% CI): IP
[4] = system: human subjects; conditions: cited from earlier work
[5] = target: α2-adrenoceptors; conditions: [3H]clonidine, rat cortex; ref Leysen 1989; Marona-Lewicka and Nichols 1995; cited from earlier work
[6] = system: C57BL/6J mice; conditions: HTR under equivalent conditions; ref Halberstadt and Geyer 2013; cited from earlier work
[7] = target: β1; conditions: ref Nichols et al. 2002; cited from earlier work
[8] = target: β2; conditions: ref Nichols et al. 2002; cited from earlier work
[9] = target: [125I]DOI-labeled sites; conditions: read-out: Ki at [125I]DOI-labeled sites; ref Huang et al. 1994; cited from earlier work
[10] = target: H1 receptors; conditions: ref Nichols et al. 2002; Rickli et al. 2015; cited from earlier work
[11] = system: [125I]DOI-labeled sites; test: Binding to [125I]DOI-labeled sites; set-up: species or system rat; conditions: from Ki values of Huang et al. 1994
[12] = first 20-min of the test session

Compound: CCN(C(=O)[C@@H]1C=C2c3cccc4[nH]cc(c34)C[C@H]2N(C)C1)C(C)C [EIPLA, N-ethyl-N-isopropyl lysergamide]
- fold lower affinity than LSD at [3H]ketanserin-labeled 5-HT2A sites [1]: three-fold
- fold lower potency than LSD in the rat drug discrimination paradigm [2]: ~3 fold

Compound: CCCN(C)C(=O)[C@@H]1C=C2c3cccc4[nH]cc(c34)C[C@H]2N(C)C1 [LAMPA, N-methyl-N-propyl lysergamide]
- HTR Counts (Mean ± SEM) ([3]; 0.1 mg/kg IP, 20 min): 15.8 ± 2.7
- HTR Counts (Mean ± SEM) ([3]; 0.3 mg/kg IP, 20 min): 31.0 ± 2.2
- HTR Counts (Mean ± SEM) ([3]; 1 mg/kg IP, 20 min): 19.5 ± 3.2
- HTR Counts (Mean ± SEM) ([3]; 3 mg/kg IP, 20 min): 7.4 ± 4.3
- ED50, nmol/kg (95% CI) [3, 12]: 358.3 (241.1–532.4) nmol/kg
- ED50, μg/kg (95% CI) [3, 12]: 115.9 (78.0–172.2) μg/kg
- effect in hallucinogen-experienced subjects ([4]; 100 μg p.o., six subjects, ref Abramson and Rolo 1967): no effect in four subjects and produced effects consistent with a threshold dose of LSD in two subjects

Compound: CCN(CC)C(=O)[C@@H]1C=C2c3cccc4[nH]cc(c34)C[C@H]2N(C)C1 [LSD, (+)-Lysergic acid diethylamide]
- Ki [5]: 0.037 to 0.082 µM
- ED50 [6]: 132.8 nmol/kg
- potency in rats trained to discriminate saline from LSD [2]: 0.021 mg/kg
- Ki [7]: 0.14 µM
- Ki [8]: 0.74 µM
- Ki [9]: 0.00143 µM
- typical oral doses ([4]; oral, humans, ref Shulgin and Shulgin 1997): 60 to 200 µg
- Ki [10]: 1.1 to 1.5 µM

Compound: CC(C)N(C)C(=O)[C@@H]1C=C2c3cccc4[nH]cc(c34)C[C@H]2N(C)C1 [MIPLA, N-methyl-N-isopropyl lysergamide]
- fold lower affinity than LSD at [3H]ketanserin-labeled 5-HT2A sites [1]: 6 fold
- potency in rats trained to discriminate saline from LSD [2]: 0.036 mg/kg
- Ki [9]: 0.00175 µM
- affinity relative to LSD at [125I]DOI-labeled sites [11]: about 82%
- HTR Counts (Mean ± SEM) ([3]; 0.1 mg/kg IP, 30 min): 12.3 ± 1.1
- HTR Counts (Mean ± SEM) ([3]; 0.2 mg/kg IP, 30 min): 31.8 ± 1.9
- HTR Counts (Mean ± SEM) ([3]; 0.4 mg/kg IP, 30 min): 26.6 ± 3.1
- ED50, nmol/kg (95% CI) ([3]; entire 30-min test session): 421.7 (360.5–493.1) nmol/kg
- ED50, μg/kg (95% CI) ([3]; entire 30-min test session): 136.4 (116.6–159.5) μg/kg
- doses producing LSD-like psychedelic effects ([4]; human subjects, ref Shulgin 2016): 180 to 300 µg
- potency as a psychedelic in man relative to LSD ([4]; ref Shulgin 2016): one-third

Source: publication PMC6848745 (Psychopharmacology, 2018)
